# According to article PMC10006169, “A phase I trial of LXS196, a protein kinase C (PKC) inhibitor, for metastatic uveal melanoma” (British Journal of Cancer, 2023):
# Tested on: patients with MUM
# Test: Patient disposition, duration of exposure and dose interruptions
# Type: in vivo
# Protocol: During dose escalation, patients received oral LXS196 either once daily (QD; 100–1000 mg) or twice daily (BID; 200–400 mg) in 28-day cycles until disease progression, intolerable toxicity or withdrawal of consent (Supplementary Fig. 1). Dosing was omitted on the second day of the first cycle (C1D2) to allow for longer post-dose sampling in order to better characterise PK. LXS196 was given on an empty stomach, at least 1 h before or 2 h after a meal. Dose escalation was guided by safety, PK data and a two-parameter Bayesian Logistic Regression Model (BLRM) employing escalation with overdose control (EWOC) criteria. The DLT period lasted 28 days after the first dose of LXS196. […] Upon determination of the MTD/RDE, the expansion part of the study was opened to further evaluate the safety, tolerability, PK and PD of LXS196 at the RDE in patients with MUM. No hypothesis testing was planned in this study, and therefore, no formal sample size calculation was needed. The sample size was selected to ensure the BLRM had adequate operating characteristics when selecting the MTD/RDE.
# Routine safety assessments, including laboratory assessments, physical examinations, vital signs and electrocardiograms (ECGs), were conducted at regular intervals throughout the study and more frequently as needed following patient assessment by the treating physician. Adverse events (AEs) were assessed continuously according to the National Cancer Institute Common Terminology Criteria for Adverse Events (NCI-CTCAE) v4.03.
structure (smiles),measurement,setting,value
CC1(N)CCN(c2cccnc2NC(=O)c2nc(-c3ncccc3C(F)(F)F)cnc2N)CC1 [LXS196],Dose interruption by reason: adverse event,300 mg BID (RDE) n=18,3 (16.7) n (%)
same,Dose interruption by reason: patient/guardian decision,300 mg BID (RDE) n=18,0 n (%)
same,Dose interruption by reason: physician decision,300 mg BID (RDE) n=18,0 n (%)
same,With at least one dose interruption,300 mg BID (RDE) n=18,3 (16.7) n (%)
same,With more than one dose interruption,300 mg BID (RDE) n=18,1 (5.6) n (%)
same,With only one dose interruption,300 mg BID (RDE) n=18,2 (11.1) n (%)
same,Dose interruption by reason: adverse event,All BID n=30,5 (16.7) n (%)
same,Dose interruption by reason: patient/guardian decision,All BID n=30,1 (3.3) n (%)
same,Dose interruption by reason: physician decision,All BID n=30,0 n (%)
same,With at least one dose interruption,All BID n=30,6 (20) n (%)
same,With more than one dose interruption,All BID n=30,3 (10.0) n (%)
same,With only one dose interruption,All BID n=30,3 (10) n (%)
same,Dose interruption by reason: adverse event,All QD n=38,11 (28.9) n (%)
same,Dose interruption by reason: patient/guardian decision,All QD n=38,0 n (%)
same,Dose interruption by reason: physician decision,All QD n=38,1 (2.6) n (%)
same,With at least one dose interruption,All QD n=38,11 (28.9) n (%)
same,With more than one dose interruption,All QD n=38,5 (13.2) n (%)
same,With only one dose interruption,All QD n=38,6 (15.8) n (%)
same,Dose interruption by reason: adverse event,All patients N=68,16 (23.5) n (%)
same,Dose interruption by reason: patient/guardian decision,All patients N=68,1 (1.5) n (%)
same,Dose interruption by reason: physician decision,All patients N=68,1 (1.5) n (%)
same,With at least one dose interruption,All patients N=68,17 (25) n (%)
same,With more than one dose interruption,All patients N=68,8 (11.8) n (%)
same,With only one dose interruption,All patients N=68,9 (13.2) n (%)
